pIC50: −log10 of the molar value. Structures can show the parent of a compound that is named as a salt.
Tests used:
[1] = target: human recombinant GST cleaved CSNK1D (Homo sapiens (Human), UniProt P48730); experiment: Purified enzyme assay (ADP-Glo Kinase Assay); assay type: biochemical; conditions: 2 nM CSNK1D, peptide substrate 150 μM, ATP 20 μM, 45 minutes room temperature
[2] = target: human CSNK1D tagged with nanoluciferase (Homo sapiens (Human), UniProt P48730); experiment: Whole Cell nBRET CSNK1D Binding Assay; conditions: living CHO cells stably expressing human CSNK1D-nanoluciferase; NanoBret tracer 130 nM; 2 hours 37° C.; read-out: CSNK1D BRET IC50
Summary of the method: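 IC50 values come from milliBRET ratios ((E630/E450)*1000) fitted against log compound concentration. Tracer displacement was run in living CHO cells stably expressing NanoLuc-fused CSNK1D, with dosed compounds and 130 nM tracer incubated 2 h at 37 °C in serum-free OptiMEM before substrate addition and donor/acceptor reading.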

Sequence of human CSNK1D tagged with nanoluciferase (P48730 whole entry, the tested form may be a part): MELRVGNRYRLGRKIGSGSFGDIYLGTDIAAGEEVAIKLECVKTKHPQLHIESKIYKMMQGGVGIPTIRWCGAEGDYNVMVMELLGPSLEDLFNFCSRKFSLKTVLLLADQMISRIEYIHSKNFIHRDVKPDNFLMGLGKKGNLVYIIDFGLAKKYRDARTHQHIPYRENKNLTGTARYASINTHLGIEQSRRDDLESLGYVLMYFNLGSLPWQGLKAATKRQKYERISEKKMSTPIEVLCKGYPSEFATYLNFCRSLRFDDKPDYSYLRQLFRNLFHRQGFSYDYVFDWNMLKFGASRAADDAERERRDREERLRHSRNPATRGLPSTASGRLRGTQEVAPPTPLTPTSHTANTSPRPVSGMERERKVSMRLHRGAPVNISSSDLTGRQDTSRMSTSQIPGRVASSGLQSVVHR
Sequence of human recombinant GST cleaved CSNK1D (P48730 whole entry): as the sequence (P48730 whole entry, the tested form may be a part) above

| SMILES | AC50 [1] [nM] | pIC50 [2] |
| --- | --- | --- |
| Cn1cc(-c2ccnc3[nH]cc(C4COC4)c23)c(-c2ccc(F)cn2)n1 [Example 93, 4-[3-(5-Fluoro-2-pyridyl)-1-methyl-pyrazol-4-yl]-3-(oxetan-3-yl)-1H-pyrrolo[2,3-b]pyridine] | 123 | 5.44 |
| Fc1ccc(-c2nn(C(F)F)cc2-c2ccnc3[nH]ncc23)nc1 [Example 66, 4-(1-(Difluoromethyl)-3-(5-fluoropyridin-2-yl)-1H-pyrazol-4-yl)-1H-pyrazolo[3,4-b]pyridine] | 526 | 5.97 |
| Cn1cc(-c2ccnc3cccnc23)c(-c2ccc(F)cn2)n1 [Example 126, 4-[3-(5-Fluoro-2-pyridyl)-1-methyl-pyrazol-4-yl]-1,5-naphthyridine] | 26 | 5.34 |
| Cn1cc(-c2ccnc3[nH]cc(C(F)(F)F)c23)c(-c2ccc(F)cn2)n1 [Example 86, 4-(3-(5-Fluoropyridin-2-yl)-1-methyl-1H-pyrazol-4-yl)-3-(trifluoromethyl)-1H-pyrrolo[2,3-b]pyridine] | 48 | 5.98 |
| Cc1csc2c(-c3cn(C)nc3-c3ccc(F)cn3)ccnc12 [Example 132, 7-[3-(5-Fluoro-2-pyridyl)-1-methyl-pyrazol-4-yl]-3-methyl-thieno[3,2-b]pyridine] | 361 | 5.29 |
| Cn1cc(-c2ncnc3[nH]ccc23)c(-c2ccc(F)cn2)n1 [Example 102, 4-(3-(5-Fluoropyridin-2-yl)-1-methyl-1H-pyrazol-4-yl)-7H-pyrrolo[2,3-d]pyrimidine] | 48 | 5.89 |
| Cn1cc(-c2ccnc3[nH]ccc23)c(-c2cncs2)n1 [Example 14, 5-(1-Methyl-4-(1H-pyrrolo[2,3-b]pyridin-4-yl)-1H-pyrazol-3-yl)thiazole] | 83 | 5.50 |
| Cc1cc(-c2cn(C3COC3)nc2-c2ccc(F)cn2)c2cn[nH]c2n1 [Example 73, 4-(3-(5-Fluoropyridin-2-yl)-1-(oxetan-3-yl)-1H-pyrazol-4-yl)-6-methyl-1H-pyrazolo[3,4-b]pyridine] | 20 | 6.24 |
| Cn1cc(-c2ccnc3[nH]ccc23)c(-c2cscn2)n1 [Example 13, 4-(1-Methyl-4-(1H-pyrrolo[2,3-b]pyridin-4-yl)-1H-pyrazol-3-yl)thiazole] | 28 | 6.20 |
| COc1cccc2c(-c3cn(C)nc3-c3ccc(F)cn3)ccnc12 [Example 148, 4-[3-(5-Fluoro-2-pyridyl)-1-methyl-pyrazol-4-yl]-8-methoxy-quinoline] | 7090 | < 5.00 |
| Cn1cc(-c2ccnc3[nH]ccc23)c(-c2ccncc2)n1 [Example 17, 4-[1-Methyl-3-(4-pyridyl)pyrazol-4-yl]-1H-pyrrolo[2,3-b]pyridine] | 101 | 5.78 |
| Cc1cc(-c2cn(C)nc2-c2ncco2)c2cn[nH]c2n1 [Example 8, 2-(1-Methyl-4-(6-methyl-1H-pyrazolo[3,4-b]pyridin-4-yl)-1H-pyrazol-3-yl)oxazole] | 783 | < 5.00 |
| Cn1cc(-c2cc(C(F)F)nc3[nH]ncc23)c(-c2cncc(F)c2)n1 [Example 146, 6-(Difluoromethyl)-4-[3-(5-fluoro-3-pyridyl)-1-methyl-pyrazol-4-yl]-1H-pyrazolo[3,4-b]pyridine] | 171 | 5.18 |
| Cn1cc(-c2ccnc3ccc(C#N)cc23)c(-c2ccc(F)cn2)n1 [Example 150, 4-[3-(5-Fluoro-2-pyridyl)-1-methyl-pyrazol-4-yl]quinoline-6-carbonitrile] | 113 | 5.74 |
| Cn1cc(-c2ccnc3[nH]ccc23)c(-c2ccns2)n1 [Example 12, 5-(1-Methyl-4-(1H-pyrrolo[2,3-b]pyridin-4-yl)-1H-pyrazol-3-yl)isothiazole] | 50 | 6.17 |
| Cn1cc(-c2ccnc3cc(Cl)ccc23)c(-c2ccc(F)cn2)n1 [Example 105, 7-Chloro-4-[3-(5-fluoro-2-pyridyl)-1-methyl-pyrazol-4-yl]quinoline] | 25 | 6.09 |
| Cc1ccc(-c2nn(C)cc2-c2ccnc3[nH]ncc23)nc1 [Example 32, 4-(1-Methyl-3-(5-methylpyridin-2-yl)-1H-pyrazol-4-yl)-1H-pyrazolo[3,4-b]pyridine] | 128 | 5.05 |
| Cn1cc(-c2ccnc3[nH]ncc23)c(-c2ccc(F)cn2)n1 [Example 98, 4-(3-(5-Fluoropyridin-2-yl)-1-methyl-1H-pyrazol-4-yl)-1H-pyrazolo[3,4-b]pyridine] | 76 | 5.63 |
| CC(C)Cn1cc(-c2ccnc3[nH]ncc23)c(-c2ccc(F)cn2)n1 [Example 62, 4-(3-(5-Fluoropyridin-2-yl)-1-isobutyl-1H-pyrazol-4-yl)-1H-pyrazolo[3,4-b]pyridine] | 8 | 6.32 |

Compounds with a higher pIC50 [2], results first:

| AC50 [1] [nM] | pIC50 [2] | SMILES |
| --- | --- | --- |
| 17 | 7.01 | CC(C)n1cc(-c2ccnc3[nH]ccc23)c(-c2ccc(F)cn2)n1 [Example 58, 4-[3-(5-Fluoro-2-pyridyl)-1-isopropyl-pyrazol-4-yl]-1H-pyrrolo[2,3-b]pyridine] |
| 38 | 6.34 | COc1cc(OC)c2c(-c3cn(C)nc3-c3ccc(F)cn3)ccnc2c1 [Example 151, 4-[3-(5-Fluoro-2-pyridyl)-1-methyl-pyrazol-4-yl]-5,7-dimethoxy-quinoline] |
| 1 | 7.77 | Cn1cc(-c2ccnc3[nH]cc(Cl)c23)c(-c2ccc(F)cn2)n1 [Example 76, 3-Chloro-4-[3-(5-fluoro-2-pyridyl)-1-methyl-pyrazol-4-yl]-1H-pyrrolo[2,3-b]pyridine] |
| 14 | 6.45 | Cn1cc(-c2ccnc3[nH]ccc23)c(-c2cncc(F)c2)n1 [Example 21, 4-[3-(5-Fluoro-3-pyridyl)-1-methyl-pyrazol-4-yl]-1H-pyrrolo[2,3-b]pyridine] |
| 11 | 6.43 | Cc1cc(-c2cn(C(C)C)nc2-c2ccc(F)cn2)c2cn[nH]c2n1 [Example 60, 4-(3-(5-Fluoropyridin-2-yl)-1-isopropyl-1H-pyrazol-4-yl)-6-methyl-1H-pyrazolo[3,4-b]pyridine] |
| 4 | 6.63 | Cc1nc(-c2cn(C)nc2-c2ccc(F)cn2)c2cc[nH]c2n1 [Example 123, 4-[3-(5-Fluoro-2-pyridyl)-1-methyl-pyrazol-4-yl]-2-methyl-7H-pyrrolo[2,3-d]pyrimidine Trifluoroacetate Salt] |
| 22 | 6.50 | COc1cnc2c(-c3cn(C)nc3-c3ccc(F)cn3)ccnc2c1 [Example 155, 8-[3-(5-Fluoro-2-pyridyl)-1-methyl-pyrazol-4-yl]-3-methoxy-1,5-naphthyridine] |
| 4 | 7.10 | FCCn1cc(-c2ccnc3[nH]ccc23)c(-c2ccc(F)cn2)n1 [Example 68, 4-[1-(2-Fluoroethyl)-3-(5-fluoro-2-pyridyl)pyrazol-4-yl]-1H-pyrrolo[2,3-b]pyridine] |
| 13 | 6.43 | COc1ccc2c(-c3cn(C)nc3-c3ccc(F)cn3)ccnc2c1 [Example 108, 4-[3-(5-Fluoro-2-pyridyl)-1-methyl-pyrazol-4-yl]-7-methoxy-quinoline] |
| 6 | 7.23 | Cc1c[nH]c2nccc(-c3cn(C)nc3-c3ccc(F)cn3)c12 [Example 82, 4-[3-(5-Fluoro-2-pyridyl)-1-methyl-pyrazol-4-yl]-3-methyl-1H-pyrrolo[2,3-b]pyridine] |
